Data as given in US4201843A, “Process for manufacturing tylosin derivatives” (Sanraku Ocean Co., Ltd., priority 1975, dated 1980).
Values after ≈ are worked out from the molar mass of the structure shown.

Key:
[1] = test system: Corynebacterium bovis 1810; test: minimum growth-inhibitory concentration; type: cell-based
Experimental: (§1) The antimicrobial spectra of new tylosin derivatives of this invention are shown in Table 2 by listing the minimum growth inhibitory concentrations (MIC, mcg/ml). […] The toxicity of these compounds was tested in animals by intravenous administration, and the LD50 values in mice are more than 400 mg/kg with all compounds. In therapeutical experiments with mice manually infected by Staphilococcus aureus SMITH, the ED50 values were less than 50 mg/kg (p.o.) with all said tylosin derivatives.

[2] = test system: Staphylococcus aureus FAD209P; test: minimum growth-inhibitory concentration; type: cell-based; conditions: read-out: minimum growth-inhibitory concentration (MIC)
Experimental: as §1

[3] = test system: Pseudomonas fluorescens NIHJB 254; test: minimum growth-inhibitory concentration; type: cell-based; conditions: NIHJB254
Experimental: as §1

Sarcina lutea ATCC 9341 = test: minimum growth-inhibitory concentration; type: cell-based; conditions: Micrococcus luteus, ATCC9341
Experimental: as §1

[4] = test system: Mycobacterium smegmatis ATCC 607; test: minimum growth-inhibitory concentration; type: cell-based; conditions: Mycolicibacterium smegmatis, ATCC607
Experimental: as §1

[5] = test system: Escherichia coli (National Institute of Health); test: minimum growth-inhibitory concentration; type: cell-based
Experimental: as §1

Micrococcus flavus I = test: minimum growth-inhibitory concentration; type: cell-based
Experimental: as §1

[6] = test system: Candida tropicalis IAM 4924; test: minimum growth-inhibitory concentration; type: cell-based; conditions: IAM4924
Experimental: as §1

[7] = test system: Bacillus subtilis ATCC 6633; test: minimum growth-inhibitory concentration; type: cell-based; conditions: ATCC6633
Experimental: as §1

[8] = test system: Staphylococcus aureus SMITH; test: minimum growth-inhibitory concentration; type: cell-based
Experimental: as §1

[9] = test system: Proteus morganii (The Institute for Infectious Diseases); test: minimum growth-inhibitory concentration; type: cell-based; conditions: Morganella morganii
Experimental: as §1

[10] = test system: Bacillus megaterium NRRL B-938; test: minimum growth-inhibitory concentration; type: cell-based; conditions: Priestia megaterium, NRRLB938
Experimental: as §1

[11] = test system: Bacillus cereus ATCC 9634; test: minimum growth-inhibitory concentration; type: cell-based; conditions: ATCC9634
Experimental: as §1

[12] = test system: Candida albicans IAM 4905; test: minimum growth-inhibitory concentration; type: cell-based; conditions: IAM4905
Experimental: as §1

drug resistant strains = test: antimicrobial activity against drug resistant strains; type: cell-based; conditions: strains marked * in Table 2
Excerpt: One of the particular advantages of the said tylosin derivatives over known macrolide antibiotics is their distinct antimicrobial activity against drug resistant bacteria.
(§2) The strains marked * in Table 2 are the drug resistant strains isolated from patients, namely, Staphilococcus aureus MS-9610 which is resistant to penicillin, tetracycline, erythromycin, leucomycin, spiramycin, josamycin and tylosin, Staphilococcus aureus MS-8710 which is resistant to penicillin, tetracycline, erythromycin, leucomycin and tylosin, and Streptococcus pyogenes MH 771 which is resistant to erythromycin, oleandomycin, leucomycin and tylosin.

[13] = test system: Streptococcus pyogenes MH 771; test: minimum growth-inhibitory concentration; type: cell-based; conditions: MH771, read-out: minimum growth-inhibitory concentration (MIC)
Experimental: as §1
(broth-dilution method)
as §2

[14] = basicity of the compounds (alkalinity); type: physicochemical
Excerpt: (§3) The physicochemical analysis and deterimations included elementary analysis, melting point, specific rotatory power, ultraviolet spectrum, infrared spectrum, magnetic nuclear resonance (NMR), C^13 -NMR, mass spectrum (chemical ionization), the release of organic acids under alkaline conditions (gas chromatographical detection), solubility in solvents, color development reaction, basicity of the compounds, appearance and crystalline form. The molecular weight was obtained as QM^+ (Quasi Molecular ion) by chemically-ionized mass spectra analysis.
(§4) (2) the crystals obtained from the solvents in (13) were used for the tests in (1)-(12), and […]

[15] = test system: Staphylococcus aureus MS 9610; test: minimum growth-inhibitory concentration; type: cell-based; conditions: MS9610; Staphylococcus aureus MS 9610, drug resistant strain
Experimental: as §1, §2

[16] = test system: Staphylococcus aureus MS 8710; test: minimum growth-inhibitory concentration; type: cell-based; conditions: MS8710; Staphylococcus aureus MS 8710, drug resistant strain
Experimental: as §1, §2

solubility in solvents = type: physicochemical; conditions: for solubility in lower alcohols, ketones, ethers, esters, benzene and toluene: e.g. ethanol, acetone, ethyl ether, ethyl acetate
Excerpt: as §3, §4

Row | SMILES | MIC [1] | MIC [2] | MIC [3] | MIC (Sarcina lutea ATCC 9341) | MIC [4] | MIC [5] | MIC (Micrococcus flavus I) | MIC [6] | MIC [7] | MIC [8] | MIC [9] | MIC [10] | MIC [11] | MIC [12] | MIC [13] | alkalinity [14] | MIC [15] | MIC [16] | solubility in acidic water (solubility in solvents) | solubility in alkaline water (solubility in solvents) | also measured
1 | CCC1OC(=O)CC(OC(C)=O)C(C)C(OC2OC(C)C(OC3CC(C)(O)C(OC(=O)CC(C)C)C(C)O3)C(N(C)C)C2O)C(CC=O)CC(C)C(=O)C=CC(C)=CC1COC1OC(C)C(O)C(OC)C1OC (stereo not shown) [3-acetyl-4"-isovaleryltylosin] | 0.5 µg/mL (≈ 0.48 µM) | 0.49 µg/mL (≈ 0.47 µM) | > 250 µg/mL | 0.25 µg/mL (≈ 0.24 µM) | 3.91 µg/mL (≈ 3.75 µM) | 125 µg/mL (≈ 120 µM) | 0.25 µg/mL (≈ 0.24 µM) | > 250 µg/mL | 0.98 µg/mL (≈ 0.94 µM) | 0.49 µg/mL (≈ 0.47 µM) | > 250 µg/mL | 0.49 µg/mL (≈ 0.47 µM) | 1.95 µg/mL (≈ 1.87 µM) | > 250 µg/mL | 3.91 µg/mL (≈ 3.75 µM) | alkaline compounds | 62.5 µg/mL (≈ 60 µM) | 15.6 µg/mL (≈ 15 µM) | soluble | hardly soluble | antimicrobial activity against a wide range of drug resistant strains (drug resistant strains): particularly strong antimicrobial activity; solubility in lower alcohols, ketones, ethers, esters, benzene and toluene (solubility in solvents): soluble; solubility in n-hexane and petroleum ether (solubility in solvents): hardly soluble; solubility in neutral water (solubility in solvents): slightly soluble
2 | CCCC(=O)OC1C(C)OC(OC2C(C)OC(OC3C(CC=O)CC(C)C(=O)C=CC(C)=CC(COC4OC(C)C(O)C(OC)C4OC)C(CC)OC(=O)CC(OC(C)=O)C3C)C(O)C2N(C)C)CC1(C)O (stereo not shown) [3-acetyl-4"-n-butyryltylosin] | 0.5 µg/mL (≈ 0.486 µM) | 0.25 µg/mL (≈ 0.243 µM) | > 250 µg/mL | < 0.12 µg/mL | 1.95 µg/mL (≈ 1.9 µM) | 250 µg/mL (≈ 243 µM) | 0.25 µg/mL (≈ 0.243 µM) | > 250 µg/mL | 0.49 µg/mL (≈ 0.477 µM) | 0.25 µg/mL (≈ 0.243 µM) | > 250 µg/mL | 0.49 µg/mL (≈ 0.477 µM) | 0.98 µg/mL (≈ 0.953 µM) | > 250 µg/mL | 15.6 µg/mL (≈ 15.2 µM) | alkaline compounds | 250 µg/mL (≈ 243 µM) | 15.6 µg/mL (≈ 15.2 µM) | soluble | hardly soluble | antimicrobial activity against a wide range of drug resistant strains (drug resistant strains): particularly strong antimicrobial activity; solubility in lower alcohols, ketones, ethers, esters, benzene and toluene (solubility in solvents): soluble; solubility in n-hexane and petroleum ether (solubility in solvents): hardly soluble; solubility in neutral water (solubility in solvents): slightly soluble
3 | CCC1OC(=O)CC(OC(C)=O)C(C)C(OC2OC(C)C(OC3CC(C)(O)C(O)C(C)O3)C(N(C)C)C2O)C(CC=O)CC(C)C(=O)/C=C/C(C)=C/C1COC1OC(C)C(O)C(OC)C1OC (stereo not shown) [3-acetyltylosin] | 0.25 µg/mL (≈ 0.261 µM) | 0.25 µg/mL (≈ 0.261 µM) | > 250 µg/mL | < 0.12 µg/mL | 7.81 µg/mL (≈ 8.15 µM) | 250 µg/mL (≈ 261 µM) | < 0.12 µg/mL | > 250 µg/mL | 0.49 µg/mL (≈ 0.511 µM) | 0.12 µg/mL (≈ 0.125 µM) | > 250 µg/mL | 0.25 µg/mL (≈ 0.261 µM) | 0.49 µg/mL (≈ 0.511 µM) | > 250 µg/mL | 125 µg/mL (≈ 130 µM) | alkaline compounds | > 250 µg/mL | 250 µg/mL (≈ 261 µM) | soluble | hardly soluble | solubility in lower alcohols, ketones, ethers, esters, benzene and toluene (solubility in solvents): soluble; solubility in n-hexane and petroleum ether (solubility in solvents): hardly soluble; solubility in neutral water (solubility in solvents): slightly soluble
4 | CCC(=O)OC1CC(=O)OC(CC)C(COC2OC(C)C(O)C(OC)C2OC)C=C(C)C=CC(=O)C(C)CC(CC=O)C(OC2OC(C)C(OC3CC(C)(O)C(OC(=O)CC(C)C)C(C)O3)C(N(C)C)C2O)C1C (stereo not shown) [3-propionyl-4"-isovaleryltylosin] | 1 µg/mL (≈ 0.947 µM) | 0.49 µg/mL (≈ 0.464 µM) | > 250 µg/mL | 0.25 µg/mL (≈ 0.237 µM) | 3.91 µg/mL (≈ 3.7 µM) | 250 µg/mL (≈ 237 µM) | 0.49 µg/mL (≈ 0.464 µM) | > 250 µg/mL | 0.49 µg/mL (≈ 0.464 µM) | 1.95 µg/mL (≈ 1.85 µM) | > 250 µg/mL | 0.49 µg/mL (≈ 0.464 µM) | 0.98 µg/mL (≈ 0.928 µM) | > 250 µg/mL | 3.91 µg/mL (≈ 3.7 µM) | alkaline compounds | 62.5 µg/mL (≈ 59.2 µM) | 15.6 µg/mL (≈ 14.8 µM) | soluble | hardly soluble | antimicrobial activity against a wide range of drug resistant strains (drug resistant strains): particularly strong antimicrobial activity; solubility in lower alcohols, ketones, ethers, esters, benzene and toluene (solubility in solvents): soluble; solubility in n-hexane and petroleum ether (solubility in solvents): hardly soluble; solubility in neutral water (solubility in solvents): slightly soluble
5 | CCC(=O)OC1CC(=O)OC(CC)C(COC2OC(C)C(O)C(OC)C2OC)/C=C(C)/C=C/C(=O)C(C)CC(CC=O)C(OC2OC(C)C(OC3CC(C)(O)C(O)C(C)O3)C(N(C)C)C2O)C1C (stereo not shown) [3-propionyltylosin] | 0.25 µg/mL (≈ 0.257 µM) | 0.25 µg/mL (≈ 0.257 µM) | > 250 µg/mL | < 0.12 µg/mL | 3.91 µg/mL (≈ 4.02 µM) | 250 µg/mL (≈ 257 µM) | < 0.12 µg/mL | > 250 µg/mL | 0.25 µg/mL (≈ 0.257 µM) | 0.12 µg/mL (≈ 0.123 µM) | > 250 µg/mL | < 0.12 µg/mL | 0.25 µg/mL (≈ 0.257 µM) | > 250 µg/mL | 62.5 µg/mL (≈ 64.3 µM) | alkaline compounds | > 250 µg/mL | 62.5 µg/mL (≈ 64.3 µM) | soluble | hardly soluble | solubility in lower alcohols, ketones, ethers, esters, benzene and toluene (solubility in solvents): soluble; solubility in n-hexane and petroleum ether (solubility in solvents): hardly soluble; solubility in neutral water (solubility in solvents): slightly soluble
